Laboratory results reported in patent EP1157000B1 (Warner-Lambert Company LLC, priority 1999, dated 2001).
Where a name gives a salt, the structure may show the parent alone.

These molecules were tested against T1, rBCATc (Rattus norvegicus, UniProt P54690) (assay: Assay of BCAT ([14C] L-leucine transamination, rat brain supernatant enzyme)). Settings: 25 µM [14C] L-leucine, 10 mM 2-oxoglutarate, pH 8.3, 10 min, 22 °C; read-out: rBCATc IC50.
T1 construct: The supernatant was dialyzed with at least three changes of dialysis buffer; from tissue; host or cells: rat brain (high-speed supernatant of homogenate, dialyzed)
T1 sequence (P54690 1-411): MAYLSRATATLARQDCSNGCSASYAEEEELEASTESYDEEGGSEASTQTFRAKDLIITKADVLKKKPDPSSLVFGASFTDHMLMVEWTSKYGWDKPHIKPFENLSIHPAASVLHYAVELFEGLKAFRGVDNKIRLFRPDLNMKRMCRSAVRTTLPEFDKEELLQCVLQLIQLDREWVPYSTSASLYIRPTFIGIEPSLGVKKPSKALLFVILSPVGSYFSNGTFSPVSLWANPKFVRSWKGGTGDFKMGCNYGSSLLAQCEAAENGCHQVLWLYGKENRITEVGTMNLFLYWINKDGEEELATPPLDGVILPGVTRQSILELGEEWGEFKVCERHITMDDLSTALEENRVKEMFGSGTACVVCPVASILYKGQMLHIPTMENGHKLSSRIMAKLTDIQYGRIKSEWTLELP
Assay type: biochemical
Description: Enzyme preparation: Frozen rat brains were thawed on ice and minced into fine pieces. […] The samples were homogenized in Potters homogenizer (B. Bran Biotech International) at 500 rpm for ten strokes, followed by additional ten strokes at 800 rpm. The homogenates were centrifuged in Beckman J2-M1 centrifuge with rotor JA-20 at 19, 000 rpm for 1 hr. […] The resulting enzyme was stored at -80 °C for further assays.
The solutions for the reaction mixture were made in 10-fold concentrations. After 10 min incubation at room temperature (22 °C), the reaction was stopped by adding 100 µl of 15 mM p-nitrophenyl hydrazine in 2 M HCL. After a few minutes, 1 mL of a toluene-based scintillation liquid (4.5 g of PPO and 0.5 g ofbis-MSB in 1 liter of toluene) was added, the tube was capped and mixed thoroughly with a Vortex mixer. […] Six hundreds µl of organic layer from each tube was placed into scintillation vials, followed by adding 10 ml of scintillation cocktail for counting.
COC(CNCC1(CC(=O)O)C[C@H](C)C[C@H](C)C1)OC (stereo partly drawn) [Example 44, {(3R, 5S)-1-[(2,2-Dimethoxy-ethylamino)-methyl]-3,5-dimethylcyclohexyl}-acetic acid; hydrochloride salt] gave an IC50 of 2730 µM. C[C@@H]1C[C@H](C)CC(CNCC2CCCC2)(CC(=O)O)C1 (stereo partly drawn) [Example 45, {(3R, 5S)-1-[(Cyclopentylmethyl-amino)-methyl]-3,5-dimethylcyclohexyl}-acetic acid; hydrochloride salt] showed an IC50 of 1330 µM. C[C@@H]1C[C@H](C)CC(CNCC2CCCCC2)(CC(=O)O)C1 (stereo partly drawn) [Example 46, {(3R, 5S)-1-[(Cyclohexylmethyl-amino)-methyl]-3,5-dimethylcyclohexyl}-acetic acid; hydrochloride salt] showed an IC50 of 1130 µM. Molecule C[C@@H]1C[C@H](C)CC(CNC2CCCCC2)(CC(=O)O)C1 (stereo partly drawn) [Example 47, ((3R, 5S)-1-Cyclohexylaminomethyl-3,5-dimethyl-cyclohexyl)-acetic acid; hydrochloride salt] has an IC50 of 15600 µM. C[C@@H]1C[C@H](C)CC(CC(=O)O)(CC(=O)O)C1 [Example 48, ((3R,5S)-1-Carboxymethyl-3,5-dimethyl-cyclohexyl)-acetic acid] was tested, and the IC50 was 8530 µM. Molecule C[C@@H]1C[C@H](C)C[C@](CO)(CC(=O)O)C1 [Example 49, trans-((3R, 5S)-1-Hydroxymethyl-3,5-dimethyl-cyclohexyl-acetic acid; hydrochloride salt] has an IC50 of 84 µM. C[C@@H]1C[C@H](C)C[C@@](CO)(CC(=O)O)C1 [Example 50, cis-((3R, 5S)-1-Hydroxymethyl-3,5-dimethyl-cyclohexyl-acetic acid; hydrochloride salt] showed an IC50 of 842 µM. CN(C)CC1(CC(=O)O)CCCCC1 [Example 51, (1-Dimethylaminomethyl-cyclohexyl)-acetic acid; hydrochloride salt] was tested, and the IC50 was over 10000 µM. CCCCNCC1(CC(=O)O)CCCCC1 [Example 52, (1-Butylaminomethyl-cyclohexyl)-acetic acid; hydrochloride salt] was tested, and the IC50 was 2520 µM. Work on COC(CNCC1(CC(=O)O)CCCCC1)OC [Example 53, {1-[2,2-Dimethoxy-ethylamino)-methyl]-cyclohexyl}-acetic acid; hydrochloride salt] yielded an IC50 of 3340 µM. With CNCC1(CC(=O)O)CCCCC1 [Example 54, (1-methylaminomethyl-cyclohexyl)-acetic acid; hydrochloride salt] the IC50 was 217 µM. Molecule CN(Cc1ccccc1)CC1(CC(=O)O)CCCCC1 [Example 55, {1-[(Benzyl-methyl-amino)-methyl]-cycloheayl}-acetic acid; hydrochloride salt] has an IC50 of 9240 µM. For C[C@@H]1C[C@H](C)CC(CO)(CC(=O)O)C1 (stereo partly drawn) [Example 58, ((3R, 5S)-1-Hydroxymethyl-3,5-dimethyl-cyclohexyl)-acetic acid; sodium salt], the IC50 was 179 µM. Molecule CCC1CCC(CN)(CC(=O)O)CC1 (stereo not drawn) [Example 60, (1-Aminomethyl-4-ethyl-cyclohexyl)-acetic acid; hydrochloric salt] has an IC50 of 11500 µM. For CCCC1CCC(CN)(CC(=O)O)CC1 (stereo not drawn) [Example 61, (1-Aminomethyl-4-propyl-cyclohexyl)-acetic acid; hydrochloric salt], the IC50 was 114 µM.
